Source: US6706733B2, “Quinolinone derivative formulation and its production method” (Dainippon Ink and Chemicals, Inc., priority 1999, dated 2004)

Legend:
[1] = Absorption test in rats (plasma concentration after oral administration); format: in vivo, male SD rats; conditions: for Cmax (maximum plasma concentration): 100 mg/kg single oral administration by gastric tube, suspended in 0.5% aqueous methyl cellulose, plasma by HPLC; for Cmax (maximum plasma concentration) / AUC (area under the plasma concentration vs. time curve): fasted male SD rats; for AUC (area under the plasma concentration vs. time curve): 100 mg/kg single oral administration, trapezoidal equation plus elimination rate constant; for absorption as compared with the α-form crystals: rats, oral 100 mg/kg, regardless of whether crushed or not
Description: A comparison of absorption into bodies of rats was conducted for each of the crystal forms and their crushed products of the quinolinone derivative represented with chemical formula (I). Furthermore, each of the crystal forms of the quinolinone derivative represented with chemical formula (I) were crushed using an automated agate mortar.
The following provides an explanation of the test method.
100 mg/kg of each sample were administered orally in a single administration using a gastric tube to 3 male SD rats (age 6 weeks) fasted for 16 hours. The samples were administered after suspending in 0.5% aqueous methyl cellulose solution and preparing to a concentration of […]. Following administration, blood samples were collected over time from the tail vein using heparin-treated glass tubes, and the quinolinone derivative concentrations of the resulting plasma were assayed by HPLC.
The maximum Plasma concentration (Cmax) and area under the plasma concentration vs. time curve (AUC) were determined from the assayed values of the quinolinone derivative at each blood sampling time.
Furthermore, Cmax was determined using measured values, while AUC was determined by calculating according to a trapezoidal equation until the time of measurement, and using the elimination rate constant after that time. The Cmax and AUC of each crystal form of the quinolinone derivative represented with chemical formula (I) are described as comparative examples.

[2] = Photostability test (6 months under direct sunlight, HPLC content); format: physicochemical; conditions: room temperature; for stability with respect to light compared among crystal forms: 6 months direct sunlight; for Residual rate of quinolinone derivative: transparent sealed container, nitrogen, direct sunlight
Description: 0.5 g of each of the crystal forms of the quinolinone derivative represented with chemical formula (I) were filled into a transparent and sealed container in a nitrogen atmosphere, and were stored for 6 months under direct sunlight at room temperature.
The content of each crystal form of the quinolinone derivative represented with chemical formula (I) was assayed over time by HPLC followed by a comparison of stability.

[3] = storage period 0 days (100% prior to storage)

| Compound | Cmax (maximum plasma concentration) [1] [ng/mL] | AUC (area under the plasma concentration vs. time curve) [1] [µg·h/mL] | stability with respect to light compared among crystal forms [2] | Residual rate of quinolinone derivative [2, 3] [%] | Residual rate of quinolinone derivative ([2]; storage period 1 month) [%] | Residual rate of quinolinone derivative ([2]; storage period 6 months) [%] | Residual rate of quinolinone derivative ([2]; storage period 15 days) [%] | absorption as compared with the α-form crystals [1] |
| --- | --- | --- | --- | --- | --- | --- | --- | --- |
| CCCCCCCCOc1c(O)c2ccc(NC(=O)/C=C/c3cc(OC)c(O)c(OC)c3)cc2n(C)c1=O [Crushed γ-form crystals] | 65000 | 575 |  |  |  |  |  |  |
| CCCCCCCCOc1c(O)c2ccc(NC(=O)/C=C/c3cc(OC)c(O)c(OC)c3)cc2n(C)c1=O [Crushed δ-form crystals] | 63000 | 597 |  |  |  |  |  |  |
| CCCCCCCCOc1c(O)c2ccc(NC(=O)/C=C/c3cc(OC)c(O)c(OC)c3)cc2n(C)c1=O [Crushed β-form crystals] | 67000 | 586 |  |  |  |  |  |  |
| CCCCCCCCOc1c(O)c2ccc(NC(=O)/C=C/c3cc(OC)c(O)c(OC)c3)cc2n(C)c1=O [α-form crystals] | 10000 | 73 | relatively stable | 100 | 97.2 | 85.1 | 99.1 |  |
| CCCCCCCCOc1c(O)c2ccc(NC(=O)/C=C/c3cc(OC)c(O)c(OC)c3)cc2n(C)c1=O [Crushed α-form crystals] | 33000 | 253 |  |  |  |  |  |  |

The remaining lines, values ahead:

| Cmax (maximum plasma concentration) [1] [ng/mL] | AUC (area under the plasma concentration vs. time curve) [1] [µg·h/mL] | stability with respect to light compared among crystal forms [2] | Residual rate of quinolinone derivative [2, 3] [%] | Residual rate of quinolinone derivative ([2]; storage period 1 month) [%] | Residual rate of quinolinone derivative ([2]; storage period 6 months) [%] | Residual rate of quinolinone derivative ([2]; storage period 15 days) [%] | absorption as compared with the α-form crystals [1] | Compound |
| --- | --- | --- | --- | --- | --- | --- | --- | --- |
| 41000 | 375 | relatively stable | 100 | 96.8 | 84.5 | 98.7 | superior absorption | CCCCCCCCOc1c(O)c2ccc(NC(=O)/C=C/c3cc(OC)c(O)c(OC)c3)cc2n(C)c1=O [β-form crystals] |
| 38000 | 325 | relatively stable | 100 | 96.5 | 84.1 | 98.9 | superior absorption | CCCCCCCCOc1c(O)c2ccc(NC(=O)/C=C/c3cc(OC)c(O)c(OC)c3)cc2n(C)c1=O [γ-form crystals] |
| 51000 | 512 | extremely unstable | 100 | 91.4 | 57.3 | 96.2 | superior absorption | CCCCCCCCOc1c(O)c2ccc(NC(=O)/C=C/c3cc(OC)c(O)c(OC)c3)cc2n(C)c1=O [δ-form crystals] |
